Experimental data: US6642271B2, “Potentiating compounds” (Ardenia Investments, Ltd., priority 2001, dated 2003)
Where “and” joins values, the source holds several entries; their conditions need not be identical. Equal entries are not always repeated.

Tests used:
[1] = system: human breast adenocarcinoma MDA-MB-231 cell line; test: Cytotoxicity: cell growth inhibition in cultures, viable cells counted by trypan blue exclusion; type: cell-based
Protocol: The cell line was propagated by cultivation in Nunclon 25 cm^2 flasks (Nunc A/S, Denmark) in Minimum Essential Medium Eagle (MEM), containing antibiotics and supplemented with 10% (v/v) fetal bovine serum (FBS) (Sigma, St. Louis, Mo., USA). The cultures were maintained in growth medium at 37° C. in a humidified atmosphere, 95% air and 5% CO2.
A suspension of tumour cells (60×10^3 cells/mL) was prepared in MEM with 5% FBS and antibiotics. Cell suspension (200 μL) was seeded in wells of Nunclon 96-microwell plates (Nunc A/S, Denmark) at a density of 12×10^3 cell/well. The solutions of the drugs to be tested were added to the cultures on day 0 or day 1 in volumes of 2 μL. In all cases the cells were incubated for 3 days.
At the end of the incubation period, adherent cells were detached by trypsinization and the number of viable cells was counted using trypan blue dye exclusion test and a hemocytometer.
All experiments were performed at least twice and the cells counts were done in triplicate for each drug concentration. Each control and test series consisted of 6-8 cultures. The results are expressed as mean cell number ±SD and the differences between control and test series were evaluated by means of Student's t-test. The cytotoxicity of each tested drug was evaluated by the extent of cell growth inhibition. The Cell growth inhibition was evaluated as follows:
Cell growth inhibition, %=- - - ×100

[2] = Solubility of compounds and formulations; type: physicochemical
Protocol: The obtained solution can be stored for at least three months at low temperatures, without noticeable change in the properties of compound (I-VI). Moreover, the formulation retains its cytotoxic effects during prolonged storage. Before use, the solution is evaporated in vacuo to yield a waxy solid which is dissolved in saline or other commonly used vehicle for intravenous infusion to a patient. […] An ethanol solution is prepared of one of N-(all-trans-Retinoyl)-L-cysteic acid (I), N-(13-cis-Retinoyl)-L-cysteic acid (11), N-(all-trans-Retinoyl)-L-homocysteic acid (III), N-(13-cis-Retinoyl)-L-homocysteic acid (IV), N-(all-trans-Retinoyl)-L-cysteinesulfinic acid (V), or N-(13-cis-Retinoyl)-L-cysteinesulfinic acid (VI). The obtained solution is evaporated in vacuo to give waxy solid, whereupon Taxol® is added, dissolving the waxy solid. […]

For `CC1=C(/C=C/C(C)=C/C=C/C(C)=C/C(=O)N[C@@H](CCS(=O)(=O)O)C(=O)O)C(C)(C)CCC1` [Compound III, N-(all-trans-Retinoyl)-L-homocysteic acid], which inhibition at 0.04 µM ([1]; Homo sapiens, MDA-MB-231, sodium salt in saline, final 4 × 10^−8 mol/L, day 1, three days) is on record?
The inhibition at 0.04 µM was 32.8%.

And the inhibition at 1 µM ([1]; Homo sapiens, MDA-MB-231, sodium salt in saline, final 10^−6 mol/L (top of range 10^−11 M to 10^−6 M), day 1, three days)?
The inhibition at 1 µM was 36.1%.

What about the inhibition at 0.1 µM ([1]; Homo sapiens, MDA-MB-231, sodium salt in saline, final 10^−7 mol/L, day 1, three days) of the same compound?
The inhibition at 0.1 µM was 34.4%.

What about the inhibition at 0.01 µM ([1]; Homo sapiens, MDA-MB-231, sodium salt in saline, final 10^−8 mol/L, day 1, three days) of the same compound?
Its inhibition at 0.01 µM is 25.8%.

What about the inhibition at 0.001 µM ([1]; Homo sapiens, MDA-MB-231, sodium salt in saline, final 10^−9 mol/L, day 1, three days) of the same compound?
The inhibition at 0.001 µM was 19.7%.

And the inhibition at 0.0001 µM ([1]; Homo sapiens, MDA-MB-231, sodium salt in saline, final 10^−10 mol/L, day 1, three days)?
The inhibition at 0.0001 µM was 15.5%.

What about the inhibition at 10 pM ([1]; Homo sapiens, MDA-MB-231, sodium salt of the compound dissolved in saline (1 mg/ml), final concentration 10^−11 mol/L, day 1, three days) of the same compound?
Its inhibition at 10 pM is 16.9%.

What about the “Cell growth inhibition % Formulation” value ([1]; compound/paclitaxel formulations in saline) of the same compound?
The value was “close to 60%”.

What about the “Cell growth inhibition % OF W/SAB” value ([1]; dried compound/paclitaxel mixed-micellar system (OF), freeze-dried as water solution, reconstituted with 0.05 M sodium acetate buffer) of the same compound?
The value was “close to 62%”.

And the “Cell growth inhibition % OF SAB/W” value ([1]; dried compound/paclitaxel mixed-micellar system (OF), freeze-dried in 0.05 M sodium acetate buffer, reconstituted with water)?
The value was “close to 63%”.

And the “number of living cells” value ([1]; sodium salt in saline, final 4 × 10^−8 mol/L, day 1, three days)?
Its value is 36.5 ± 2.08 × 10^3.

And the cell growth inhibition ([1]; sodium salt in saline, final 10^−6 mol/L (top of range 10^−11 M to 10^−6 M), day 1, three days)?
The cell growth inhibition was about 35%.

And the “number of living cells” value ([1]; sodium salt in saline, final 10^−6 mol/L, day 1, three days)?
Its value is 34.7 ± 1.52 × 10^3.

And the “number of living cells” value ([1]; sodium salt in saline, final 10^−7 mol/L, day 1, three days)?
Its value is 35.6 ± 1.68 × 10^3.

What about the “number of living cells” value ([1]; sodium salt in saline, final 10^−8 mol/L, day 1, three days) of the same compound?
Its value is 40.3 ± 3.36 × 10^3.

And the “number of living cells” value ([1]; sodium salt in saline, final 10^−9 mol/L, day 1, three days)?
Its value is 43.6 ± 2.57 × 10^3.

And the “number of living cells” value ([1]; sodium salt in saline, final 10^−10 mol/L, day 1, three days)?
The value was 45.9 ± 2.84 × 10^3.

What about the “number of living cells” value ([1]; sodium salt of the compound dissolved in saline (1 mg/ml), final concentration 10^−11 mol/L, day 1, three days) of the same compound?
Its value is 45.1 ± 3.51 × 10^3.

What about the “solubility in the commercially available Taxol® preparation” value [2] of the same compound?
Its value is “excellent solubility”.

And the solubility in solvents ([2]; sodium salts)?
Its solubility in solvents is “also dissolved in methanol and some methanol containing mixtures”.

With `CC(=O)O[C@H]1C(=O)[C@@]2(C)[C@H]([C@H](OC(=O)c3ccccc3)[C@]3(O)C[C@H](OC(=O)[C@H](O)[C@@H](NC(=O)c4ccccc4)c4ccccc4)C(C)=C1C3(C)C)[C@]1(OC(C)=O)CO[C@@H]1C[C@@H]2O` [Paclitaxel, reference compound] as the compound, how does the “number of living cells” value ([1]; 8 × 10^−9 mol/L of paclitaxel (formulation: plus 4 × 10^−8 mol/L of compound, molar ratio 1:5), added day 0, three days) read?
The value was 15.5 ± 1.63 × 10^3 and 26.3 ± 1.96 × 10^3.

And the cell growth inhibition ([1]; at concentrations close to the IC50 concentration)?
Its cell growth inhibition is about 46%.

What about the cell growth inhibition ([1]; drug alone, 10 nM paclitaxel, added day 1, three days of cultivation, positive control of molar-ratio experiments) of the same compound?
The cell growth inhibition was 46.1% and 44.3%.
